Source: US20050165030A1, “Pharmaceutical compositions comprising a multifunctional phosphodiesterase inhibitor and an adenosine uptake inhibitor” (priority 2001, published 2005)
Read-outs that look alike come from different tables or passages of the source.

Legend:
[1] = test system: platelets in human whole blood; test: whole blood platelet aggregation in vitro (collagen); format: cell-based; details: for inhibition of platelet aggregation: alone: cilostazol 0.3-3 μM, dipyridamole 1 or 3 μM, 0.1 or 0.3 μg/ml collagen; for effect on platelet aggregation in whole blood: alone: cilostazol 10 or 30 μM, dipyridamole 0.1, 0.3, 1 or 3 μM, 0.5 μg/ml collagen
Procedure: The electrodes were then placed in the cuvette and the sample was allowed to incubate at 37° C. while the instrument was calibrated. […] Dipyridamole was diluted in ethanol (EtOH) to a stock concentration of 100 mM. […] The suspension was allowed to incubate for 3 minutes before collagen was added. […] […] Data are expressed as percent of the values detected in the absence of any inhibition.

human washed platelets = test: collagen-induced aggregation of washed platelets; format: cell-based; details: for inhibitory effect on washed platelet aggregation: alone: dipyridamole 1, 3 or 10 μM, cilostazol 30 or 100 nM, adenosine 1 μM; for IC50: Homo sapiens, Platelet; for inhibition of washed platelet aggregation: single agent + 1 μM adenosine (dipyridamole 1, 3, 10 μM; cilostazol 30 or 100 nM)
Procedure: Aggregation was quantified by the change in light transmission using an AG-10 Aggregation Analyzer (Kowa, Japan). Washed platelets were maintained at room temperature and the study was performed within 3 hours following blood collection. Cilostazol was dissolved in DMSO and adenosine was dissolved in water. […] Drug or vehicle (DMSO) was then added (0.4 μl) and incubated for another 3 minutes. […] The overall time of aggregation recorded was 15 minutes.

PDE3 = details: Liu et al., 2000; read-out: potency for inhibition of PDE3; cited from earlier work
[2] = blood concentration during intravenous infusion; format: in vivo, rabbit; details: cilostazol 0.225 mg/kg bolus + 0.0175 mg/kg/min i.v.; dipyridamole 20 μg/kg/min i.v.
Procedure: Sixty minutes after the surgery, injection of vehicle or the drug combination was initiated. After 20 minutes, the gastrocnemius muscle of the left hindlimb was stimulated throughout the rest of the experiment. Twenty minutes after the stimulation (40 minute time point in FIG. 15), the left femoral artery was clamped for 20 minutes to induce ischemia and then released to allow reperfusion. The regional blood flow was determined by the injection at 0, 20, 40, 60, and 80 minutes of blue-green, yellow-green, orange, red and crimson fluorescent microspheres.

[3] = test system: whole blood platelet aggregation; test: ex vivo whole blood platelet aggregation, clinical crossover study; format: in vivo, human; details: alone: cilostazol 100 mg, dipyridamole 200 mg
Procedure: On study day 4, subjects received one 200 mg tablet of dipyridamole. […] The platelet aggregation was induced by the addition of collagen (final concentration of 0.3 μg/ml, Nycomed Arzneimittel, Munchen, Germany). The percentage aggregation was recorded at each time point. To compare the effect of drug treatments, the aggregation at 2-hour and 4-hour is normalized as a percentage to the values prior to dosing.

[4] = test system: adenosine uptake into washed human erythrocytes; test: [3H]adenosine uptake into washed erythrocytes; format: cell-based
Procedure: Washed erythrocytes (wRBC) were prepared as follows.

[5] = test system: isolated rabbit Langendorff hearts; test: cardiac function of isolated rabbit Langendorff hearts
Procedure: This study was conducted in accordance with the “Guide for the Care And Use of Laboratory Animals”, published by the National Research Council, 1996, Washington D.C., and approved by the Institutional Animal Care and Use Committee of Otsuka Maryland Research Institute, LLC. […] A tracheotomy was performed and the animals were intubated. […] The respiratory rate was adjusted to keep arterial blood PO2, PCO2 and pH in the physiological range. […] Hearts were exposed through a mid-line incision of the chest, and quickly excised by an incision at the base of the heart and put into ice-cold Krebs-Henseleit bicarbonate buffer. The heart was then attached to a Langendorff apparatus by the aortic root, and perfused with non-recirculating Krebs-Henseleit buffer at a constant pressure of 75 mmHg. The perfusate was bubbled with 95% O2 and 5% CO2 gas mixture, and the bubbling rate was adjusted to maintain physiological pH (7.35-7.45). Perfusate temperature was maintained at 38° C. by a circulating waterjacket surrounding the buffer reservoirs. The heart was also maintained at 38° C. via a water-jacketed housing in which it was suspended. The open top of the jacket was covered with a piece of parafilm to maintain the humidity and temperature. The pulmonary artery around the right side of the aortic root was cannulated for collecting coronary effluent and for coronary flow rate measurement with a graduated cylinder. […] The pressure transducer was connected to a Grass Chart Recorder (Model 7) to record left ventricular pressure and its first derivative (dp/dt), and heart rate. Hearts with left ventricular developing pressure less than 85 mmHg at the end of the 15-min equilibrium period were not included in the study. The cardiac function indexes measured were LVDP (left ventricular developed pressure), dp/dtmax (the maximal value of the first derivative of the LVDP), heart rate, and coronary flow. […] Measurements for cardiac function were taken at the end of each 5 min drug treatment. The effect of drug treatment is expressed as the percent change of values before and after each drug treatment: % Change from Baseline=[(Value after drug−Value before drug)/Value before drug]×100 Statistical Analysis

adenosine uptake = details: cited from earlier work; for IC50: read-out: IC50 of adenosine uptake inhibition
[6] = test system: isolated rabbit Langendorff hearts; details: concentrations below 1 μM, previous studies; cited from earlier work
[7] = blood concentration after single oral dose; format: in vivo, human; details: 2 and 4 hours after a single dose
[8] = test system: adenosine A2A-expressing Chinese hamster ovary (CHO) cells; test: CRE-luciferase assay (intracellular cAMP) in CHO cells expressing human adenosine A2A receptor; format: cell-based; details: range 0.5 μM to 10 μM
Procedure: The level of luciferase expression reflects the concentration of intracellular cAMP. […] Therefore, the activation of the receptors would be reflected by luciferase expression, where the expression level can be measured by the luciferase activity assay. Co-transfection of the luciferase reporter vector with the vectors containing adenosine A2A receptors was carried out by calcium phosphate precipitation into Chinese hamster ovary (CHO) cells. Stable transfectants were selected with 1.0 mg/ml G418 (Life Technologies) for 12 days. The cell clones over-expressing functional adenosine A2A receptors were determined by luciferase expression under the stimulation of adenosine.
The next day, the cells were washed once with F12K medium supplemented with 0.5% FCS and then incubated with 100 μl of the medium only (basal) or medium plus test agents for 4 hours at 37° C. After equilibrating to room temperature, 100 μl of detection substrate (Bright-Glo™ luciferase assay system, Promega, Madison, Wis.) were added to each well. The luciferase activity was measured after 5 minutes using a Mediators PhL luminescence plate reader (ImmTech, New Windsor, Md.). The value of luminescence (arbitrary unit) detected during half a second was taken as luciferase activity.

[9] = 2 and 4 hours after a single dose of 200 mg, previous pharmacokinetic data; cited from earlier work
whole blood = test: adenosine concentration in plasma of collagen-stimulated whole blood (HPLC); format: cell-based, human; details: dipyridamole 1 μM, 5 minutes after 2 μg/ml collagen, n=3
Procedure: Blood was drawn and mixed with recombinant human huridin (100 U/ml). The same procedure for platelet aggregation was used to stimulate these platelets with collagen (2 μg/ml). After a 5-minute incubation, 500 μl of WB were mixed quickly with 500 μl of ice-cold saline. The cells were spun at 20,000×g for 4 minutes at 4° C. Supernatant (600 μl) was first mixed with 300 μl PCA (2.5 N) and then neutralized with 300 μl of KHCO3 (2.5 M). Finally, the mixture was centrifuged at 20,000×g for 15 minutes at 4° C. The adenosine concentration in the supernatants was measured using reverse-phase high performance liquid chromatography (HPLC, Waters Alliance 2690) with a Hypersil 3μ C18 column (150 mm×4.6 mm) and a gradient from 5 to 20% methanol in 20 mM KH2PO4. Adenosine was detected using a diode array detector (Water 996) with an absorbance change at 258 nm and quantified by comparison of retention times and peak height with those of a known external standard. Quantification was performed using Waters Millennium 32 Client/Server software.

[10] = test system: adenosine uptake into CHO cells over-expressing functional human A2A receptors; test: [3H]adenosine uptake into CHO cells over-expressing human A2A receptors; format: cell-based; details: compared with platelets and erythrocytes, data not shown
[11] = dipyridamole 0.3, 1 or 3 μM with cilostazol

## Nc1nc(NCCc2ccc(O)cc2)nc2nc(-c3ccco3)nn12 [ZM241385]
[1]; ZM241385 0.1 μM, n=8
  effect on the synergistic effect of dipyridamole and cilostazol on whole blood aggregation: reverted back to the basal level of cilostazol alone

## Nc1ncnc2c1ncn2[C@@H]1O[C@H](CO)[C@@H](O)[C@H]1O [adenosine]
Human washed platelets; 1 μM, by itself
  effect on collagen-induced platelet aggregation: little effect
Human washed platelets
  inhibitory effect on washed platelet aggregation: no effect

## O=C1CCc2cc(OCCCCc3nnnn3C3CCCCC3)ccc2N1 [cilostazol, 6-[4-(1-cyclohexyl-1H-tetrazol-5yl)butoxy]-3,4-dihydro-2(1H)-quinolinone]
PDE3
  IC50: 320 nM
[2]
  blood concentration: about 1 μM
[3]
  inhibition of ex vivo platelet aggregation: neither cilostazol nor dipyridamole alone inhibited
[1]
  inhibition of platelet aggregation: did not cause any significant inhibition
  effect on platelet aggregation in whole blood: did not have a significant effect
[4]; Homo sapiens, Erythrocyte, washed erythrocytes, n=3, read-out: IC50 of adenosine uptake inhibition
  IC50: ~7000 nM
[5]; cilostazol 3 or 10 μM
  coronary flow: significantly increased
Adenosine uptake; various cells (rabbit cardiac myocytes, human vascular smooth muscle, endothelial cells), Liu et al., 2000
  IC50: 5000 to 10000 nM
[6]
  effects on cardiac function: minimal effects
Human washed platelets; 1 μM, by itself
  effect on collagen-induced platelet aggregation: little effect
Human washed platelets; read-out: IC50 of Cilostazol on Platelet Aggregation, +Adenosine (1 μM)
  IC50: 380 ± 50 nM
Human washed platelets; read-out: IC50 of Cilostazol on Platelet Aggregation, +Adenosine + Dipyridamole (1 μM)
  IC50: 170 ± 40 nM
Human washed platelets; read-out: IC50 of Cilostazol on Platelet Aggregation, +Adenosine + Dipyridamole (3 μM)
  IC50: 110 nM
Human washed platelets; read-out: IC50 of Cilostazol on Platelet Aggregation, +Adenosine + Dipyridamole (10 μM)
  IC50: 10 ± 10 nM
Human washed platelets; read-out: IC50 of Cilostazol on Platelet Aggregation, cilostazol alone, washed platelets, collagen
  IC50: 2660 ± 410 nM
Human washed platelets
  inhibitory effect on washed platelet aggregation: no significant inhibitory effect
  inhibition of washed platelet aggregation: significant differences from controls
Human washed platelets; cilostazol 1 μM combined with adenosine 1 μM
  effect on collagen-induced platelet aggregation: completely inhibited
[7]
  blood concentration: about 2 μM

## OCCN(CCO)c1nc(N2CCCCC2)c2nc(N(CCO)CCO)nc(N3CCCCC3)c2n1 [dipyridamole]
[2]
  blood concentration: about 1 μM
[3]
  inhibition of ex vivo platelet aggregation: neither cilostazol nor dipyridamole alone inhibited
[1]
  inhibition of platelet aggregation: did not cause any significant inhibition
  effect on platelet aggregation in whole blood: did not have a significant effect
[1]; dipyridamole 1 μM, 2 μg/ml collagen
  platelet aggregation: not affected
[5]; dipyridamole 0.3, 1 or 3 μM alone
  effect on cardiac function: no significant effect
[5]; [11]
  cilostazol-induced increase of cardiac contractility: significantly reduced
  cilostazol-induced increase of heart rate: significantly reduced
[5]; dipyridamole 1 and 3 μM with cilostazol 10 μM
  cilostazol-induced increase in coronary flow: augmented
[8]
  dipyridamole concentration of peak enhancement of cilostazol effect on luciferase activity: about 5 μM
[9]
  blood concentration: about 2 μM
Adenosine uptake
  IC50: 10 nM
Human washed platelets
  inhibitory effect on washed platelet aggregation: no significant inhibitory effect
  inhibition of washed platelet aggregation: enhanced the effect of dipyridamole significantly
Whole blood
  adenosine levels in whole blood plasma: 5.916 ± 0.641 µM

## Cc1[nH]c(=O)c(C#N)cc1-c1ccncc1 [milrinone]
[4]; erythrocytes
  effect on adenosine uptake: virtually no effect
[10]
  inhibition of [3H]adenosine uptake: no effect
Adenosine uptake; at concentrations as high as 100 μM, Liu et al., 2000
  inhibitory effect on adenosine uptake: no significant inhibitory effect
